Experimental data taken from the kinase profiling compilation of Christmann-Franck et al. (2016).

Tests used:
Assay in all cases: KINOMEscan competition binding
Settings in all cases: compound 1.0 µM
EPHA3 (human) = EPHA3 (human) (UniProt P29320)
PAK2 (human) = PAK2 (human) (UniProt Q13177)
ROCK2 (human) = ROCK2 (human) (UniProt O75116)
NTRK1 (human) = NTRK1 (human) (UniProt P04629)
EPHA7 (human) = EPHA7 (human) (UniProt Q15375)
PAK4 (human) = PAK4 (human) (UniProt O96013)
NEK4 (human) = NEK4 (human) (UniProt P51957)
PRKCH (human) = PRKCH (human) (UniProt P24723)
[1] = test system: MET (human), P08581 [M1250T]
ADCK3 (human) = ADCK3 (human) (UniProt Q8NI60)
SGK1 (human) = SGK1 (human) (UniProt O00141)
CAMK2D (human) = CAMK2D (human) (UniProt Q13557)
DAPK3 (human) = DAPK3 (human) (UniProt O43293)
MAP3K12 (human) = MAP3K12 (human) (UniProt Q12852)
PRKCD (human) = PRKCD (human) (UniProt Q05655)
ACVR1 (human) = ACVR1 (human) (UniProt Q04771)
RPS6KA2 KD2 (human) = RPS6KA2 KD2 (human) (UniProt Q15349)
NEK7 (human) = NEK7 (human) (UniProt Q8TDX7)
PRKACB (human) = PRKACB (human) (UniProt P22694)
CRK2 (P.falciparum) = CRK2 (P.falciparum) (UniProt P61075)
CLK3 (human) = CLK3 (human) (UniProt P49761)
TYRO3 (human) = TYRO3 (human) (UniProt Q06418)
IRAK4 (human) = IRAK4 (human) (UniProt Q9NWZ3)
ERBB3 (human) = ERBB3 (human) (UniProt P21860)
MAK (human) = MAK (human) (UniProt P20794)
ROS1 (human) = ROS1 (human) (UniProt P08922)
CSNK1E (human) = CSNK1E (human) (UniProt P49674)
STK24 (human) = STK24 (human) (UniProt Q9Y6E0)
CDKL2 (human) = CDKL2 (human) (UniProt Q92772)
[2] = test system: EGFR (human), P00533 [L858R]
FGR (human) = FGR (human) (UniProt P09769)
[3] = biological target: JAK3 JH1 catalytic (human) (UniProt P52333)
PTK6 (human) = PTK6 (human) (UniProt Q13882)
MATK (human) = MATK (human) (UniProt P42679)
TNIK (human) = TNIK (human) (UniProt Q9UKE5)
FGFR4 (human) = FGFR4 (human) (UniProt P22455)
PRKX (human) = PRKX (human) (UniProt P51817)
CSNK1G2 (human) = CSNK1G2 (human) (UniProt P78368)
SRPK3 (human) = SRPK3 (human) (UniProt Q9UPE1)

Chain of EPHA3 (human) (P29320 whole entry, looked up): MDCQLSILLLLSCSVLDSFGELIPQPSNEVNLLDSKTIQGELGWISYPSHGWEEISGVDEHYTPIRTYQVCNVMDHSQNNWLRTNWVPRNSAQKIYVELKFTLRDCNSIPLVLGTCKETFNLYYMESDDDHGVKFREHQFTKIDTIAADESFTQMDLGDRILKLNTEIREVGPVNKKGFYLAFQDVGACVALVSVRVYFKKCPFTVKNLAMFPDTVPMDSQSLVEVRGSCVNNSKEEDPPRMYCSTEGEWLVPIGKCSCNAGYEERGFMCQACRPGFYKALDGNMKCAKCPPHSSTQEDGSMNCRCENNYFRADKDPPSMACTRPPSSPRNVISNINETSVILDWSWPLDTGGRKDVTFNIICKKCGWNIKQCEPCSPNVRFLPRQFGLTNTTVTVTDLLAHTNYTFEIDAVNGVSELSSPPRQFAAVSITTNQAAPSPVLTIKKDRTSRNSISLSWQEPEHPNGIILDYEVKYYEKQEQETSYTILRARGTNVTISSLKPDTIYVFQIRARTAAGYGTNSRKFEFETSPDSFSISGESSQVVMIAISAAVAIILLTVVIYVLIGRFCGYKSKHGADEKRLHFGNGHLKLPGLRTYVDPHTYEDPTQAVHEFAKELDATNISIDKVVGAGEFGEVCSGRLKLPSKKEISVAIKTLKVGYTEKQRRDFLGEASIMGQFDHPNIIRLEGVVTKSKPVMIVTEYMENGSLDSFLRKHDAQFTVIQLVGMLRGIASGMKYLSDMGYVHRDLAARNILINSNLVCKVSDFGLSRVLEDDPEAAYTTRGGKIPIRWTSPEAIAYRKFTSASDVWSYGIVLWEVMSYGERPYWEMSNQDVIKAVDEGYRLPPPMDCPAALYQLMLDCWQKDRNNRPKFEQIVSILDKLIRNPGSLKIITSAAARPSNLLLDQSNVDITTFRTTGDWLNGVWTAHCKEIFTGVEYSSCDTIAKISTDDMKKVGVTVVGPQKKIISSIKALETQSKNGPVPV
Chain of FGFR4 (human) (P22455 whole entry, looked up): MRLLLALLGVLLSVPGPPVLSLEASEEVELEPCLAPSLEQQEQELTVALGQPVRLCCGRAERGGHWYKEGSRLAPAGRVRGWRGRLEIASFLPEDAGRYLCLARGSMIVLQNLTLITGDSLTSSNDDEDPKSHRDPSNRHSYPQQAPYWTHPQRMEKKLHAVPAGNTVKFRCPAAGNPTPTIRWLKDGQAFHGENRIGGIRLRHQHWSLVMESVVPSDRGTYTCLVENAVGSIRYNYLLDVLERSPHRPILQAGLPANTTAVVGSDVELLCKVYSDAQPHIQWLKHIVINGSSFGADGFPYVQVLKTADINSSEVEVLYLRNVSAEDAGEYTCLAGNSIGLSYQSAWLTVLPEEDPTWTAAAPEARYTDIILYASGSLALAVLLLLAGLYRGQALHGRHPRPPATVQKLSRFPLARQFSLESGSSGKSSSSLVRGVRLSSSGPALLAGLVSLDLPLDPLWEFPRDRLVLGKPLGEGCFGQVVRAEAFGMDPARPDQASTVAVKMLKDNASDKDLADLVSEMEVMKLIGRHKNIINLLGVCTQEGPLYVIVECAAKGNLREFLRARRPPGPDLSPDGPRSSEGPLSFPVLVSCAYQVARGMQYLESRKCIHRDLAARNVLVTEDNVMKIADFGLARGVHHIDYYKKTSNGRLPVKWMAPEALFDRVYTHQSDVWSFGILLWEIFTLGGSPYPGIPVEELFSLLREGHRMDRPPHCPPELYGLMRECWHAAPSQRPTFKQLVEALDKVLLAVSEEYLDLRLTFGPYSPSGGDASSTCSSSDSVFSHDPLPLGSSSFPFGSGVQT
Chain of EPHA7 (human) (Q15375 whole entry, looked up): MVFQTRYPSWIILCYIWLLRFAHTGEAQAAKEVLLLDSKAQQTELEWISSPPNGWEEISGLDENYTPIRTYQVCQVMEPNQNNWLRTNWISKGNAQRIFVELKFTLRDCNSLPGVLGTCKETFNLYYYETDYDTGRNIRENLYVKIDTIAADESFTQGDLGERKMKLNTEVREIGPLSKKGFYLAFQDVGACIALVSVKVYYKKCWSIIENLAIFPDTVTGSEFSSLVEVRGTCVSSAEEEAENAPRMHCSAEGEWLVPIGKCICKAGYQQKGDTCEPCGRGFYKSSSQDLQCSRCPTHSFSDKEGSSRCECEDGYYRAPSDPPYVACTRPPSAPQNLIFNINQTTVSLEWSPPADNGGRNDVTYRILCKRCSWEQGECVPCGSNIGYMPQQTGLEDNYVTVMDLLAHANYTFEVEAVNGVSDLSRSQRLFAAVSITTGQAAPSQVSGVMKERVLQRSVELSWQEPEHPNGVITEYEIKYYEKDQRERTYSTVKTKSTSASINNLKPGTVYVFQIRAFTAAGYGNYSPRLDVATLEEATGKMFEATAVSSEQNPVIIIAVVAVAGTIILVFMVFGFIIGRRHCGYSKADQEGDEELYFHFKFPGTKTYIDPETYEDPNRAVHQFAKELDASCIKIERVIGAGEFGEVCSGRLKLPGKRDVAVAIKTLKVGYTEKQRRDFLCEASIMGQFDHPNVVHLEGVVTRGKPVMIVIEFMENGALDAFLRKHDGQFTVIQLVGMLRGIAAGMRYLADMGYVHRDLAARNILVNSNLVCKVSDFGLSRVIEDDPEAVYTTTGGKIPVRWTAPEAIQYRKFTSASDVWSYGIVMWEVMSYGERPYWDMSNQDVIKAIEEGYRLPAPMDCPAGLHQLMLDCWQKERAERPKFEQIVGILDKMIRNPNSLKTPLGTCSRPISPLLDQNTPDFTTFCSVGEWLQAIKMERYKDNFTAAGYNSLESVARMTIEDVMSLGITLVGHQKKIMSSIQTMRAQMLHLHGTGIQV
Chain of PTK6 (human) (Q13882 whole entry, looked up): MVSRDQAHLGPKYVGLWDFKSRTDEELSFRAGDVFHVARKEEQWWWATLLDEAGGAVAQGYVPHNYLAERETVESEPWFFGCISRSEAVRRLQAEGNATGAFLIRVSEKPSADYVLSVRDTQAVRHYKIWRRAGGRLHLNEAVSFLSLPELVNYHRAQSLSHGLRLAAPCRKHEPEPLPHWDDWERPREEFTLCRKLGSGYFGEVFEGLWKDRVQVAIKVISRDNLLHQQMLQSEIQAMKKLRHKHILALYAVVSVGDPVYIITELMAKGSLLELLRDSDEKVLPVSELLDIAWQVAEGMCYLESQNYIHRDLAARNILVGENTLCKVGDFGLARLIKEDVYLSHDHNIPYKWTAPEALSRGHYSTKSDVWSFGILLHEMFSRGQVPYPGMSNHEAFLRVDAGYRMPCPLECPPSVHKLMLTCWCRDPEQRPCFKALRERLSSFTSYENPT
Chain of FGR (human) (P09769 whole entry, looked up): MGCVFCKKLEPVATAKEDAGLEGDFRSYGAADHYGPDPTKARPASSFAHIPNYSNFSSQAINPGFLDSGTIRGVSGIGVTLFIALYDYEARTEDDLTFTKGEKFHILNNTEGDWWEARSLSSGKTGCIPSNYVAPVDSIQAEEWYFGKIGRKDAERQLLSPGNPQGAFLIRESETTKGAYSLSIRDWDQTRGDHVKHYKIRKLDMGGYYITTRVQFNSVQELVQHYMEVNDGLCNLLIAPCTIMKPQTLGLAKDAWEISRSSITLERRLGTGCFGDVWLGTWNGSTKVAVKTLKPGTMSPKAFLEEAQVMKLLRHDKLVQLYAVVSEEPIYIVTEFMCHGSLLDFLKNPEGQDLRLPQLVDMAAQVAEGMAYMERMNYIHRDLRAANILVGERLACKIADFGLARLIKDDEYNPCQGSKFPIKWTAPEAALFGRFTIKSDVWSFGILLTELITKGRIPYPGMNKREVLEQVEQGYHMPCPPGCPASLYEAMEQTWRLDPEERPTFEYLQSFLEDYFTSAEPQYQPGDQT
Chain of MATK (human) (P42679 whole entry, looked up): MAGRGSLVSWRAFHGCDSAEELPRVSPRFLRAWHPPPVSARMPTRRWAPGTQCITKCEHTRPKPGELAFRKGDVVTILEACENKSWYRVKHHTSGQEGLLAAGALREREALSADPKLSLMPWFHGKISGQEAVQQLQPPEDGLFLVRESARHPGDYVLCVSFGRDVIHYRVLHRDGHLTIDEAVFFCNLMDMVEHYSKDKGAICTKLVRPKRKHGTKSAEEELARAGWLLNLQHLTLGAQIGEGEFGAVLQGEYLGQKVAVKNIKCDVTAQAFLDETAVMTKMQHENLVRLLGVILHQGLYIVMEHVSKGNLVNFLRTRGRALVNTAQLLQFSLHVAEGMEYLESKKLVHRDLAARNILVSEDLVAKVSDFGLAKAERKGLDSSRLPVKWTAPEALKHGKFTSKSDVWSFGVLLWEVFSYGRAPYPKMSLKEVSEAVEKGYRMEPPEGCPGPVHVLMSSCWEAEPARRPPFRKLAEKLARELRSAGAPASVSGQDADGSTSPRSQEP
Chain of NTRK1 (human) (P04629 whole entry, looked up): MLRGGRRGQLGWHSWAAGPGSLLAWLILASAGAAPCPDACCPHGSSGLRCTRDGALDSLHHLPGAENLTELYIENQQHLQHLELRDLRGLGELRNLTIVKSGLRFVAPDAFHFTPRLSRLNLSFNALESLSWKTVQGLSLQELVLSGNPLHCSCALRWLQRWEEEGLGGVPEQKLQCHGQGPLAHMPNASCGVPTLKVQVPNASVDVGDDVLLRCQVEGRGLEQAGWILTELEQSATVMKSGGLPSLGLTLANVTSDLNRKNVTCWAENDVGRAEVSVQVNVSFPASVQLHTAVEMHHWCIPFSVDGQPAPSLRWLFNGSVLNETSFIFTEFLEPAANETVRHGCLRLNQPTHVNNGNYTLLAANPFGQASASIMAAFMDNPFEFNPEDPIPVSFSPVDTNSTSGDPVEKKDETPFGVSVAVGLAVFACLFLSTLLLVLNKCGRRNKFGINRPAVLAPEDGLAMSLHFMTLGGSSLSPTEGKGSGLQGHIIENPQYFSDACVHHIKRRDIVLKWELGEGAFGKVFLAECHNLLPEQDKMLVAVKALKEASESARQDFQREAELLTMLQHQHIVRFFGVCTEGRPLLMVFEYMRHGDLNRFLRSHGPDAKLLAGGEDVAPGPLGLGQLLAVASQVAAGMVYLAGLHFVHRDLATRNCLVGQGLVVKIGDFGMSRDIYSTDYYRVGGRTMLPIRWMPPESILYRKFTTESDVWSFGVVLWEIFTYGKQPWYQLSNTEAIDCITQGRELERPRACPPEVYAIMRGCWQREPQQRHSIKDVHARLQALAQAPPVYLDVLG

CNc1nc(Nc2ccc(C(=O)N3CCOCC3)cc2OC)ncc1Cl
kinase still bound, per cent of control (EPHA3 (human)): 100% | kinase still bound, per cent of control (PAK2 (human)): 95% | kinase still bound, per cent of control (ROCK2 (human)): 100% | kinase still bound, per cent of control (NTRK1 (human)): 99% | kinase still bound, per cent of control (EPHA7 (human)): 100% | kinase still bound, per cent of control (PAK4 (human)): 100% | kinase still bound, per cent of control (NEK4 (human)): 87% | kinase still bound, per cent of control (PRKCH (human)): 100% | kinase still bound, per cent of control [1]: 100% | kinase still bound, per cent of control (ADCK3 (human)): 100% | kinase still bound, per cent of control (SGK1 (human)): 82% | kinase still bound, per cent of control (CAMK2D (human)): 87% | kinase still bound, per cent of control (DAPK3 (human)): 63% | residual activity (MAP3K12 (human)): 100% | kinase still bound, per cent of control (PRKCD (human)): 49% | kinase still bound, per cent of control (ACVR1 (human)): 95% | kinase still bound, per cent of control (RPS6KA2 KD2 (human)): 92% | kinase still bound, per cent of control (NEK7 (human)): 88% | residual activity (PRKACB (human)): 84% | kinase still bound, per cent of control (CRK2 (P.falciparum)): 100% | kinase still bound, per cent of control (CLK3 (human)): 100% | kinase still bound, per cent of control (TYRO3 (human)): 100% | kinase still bound, per cent of control (IRAK4 (human)): 100% | kinase still bound, per cent of control (ERBB3 (human)): 100% | kinase still bound, per cent of control (MAK (human)): 100% | kinase still bound, per cent of control (ROS1 (human)): 100% | kinase still bound, per cent of control (CSNK1E (human)): 100% | kinase still bound, per cent of control (STK24 (human)): 79% | residual activity (CDKL2 (human)): 100% | kinase still bound, per cent of control [2]: 100% | kinase still bound, per cent of control (FGR (human)): 100% | kinase still bound, per cent of control [3]: 90% | kinase still bound, per cent of control (PTK6 (human)): 47% | kinase still bound, per cent of control (MATK (human)): 100% | kinase still bound, per cent of control (TNIK (human)): 100% | kinase still bound, per cent of control (FGFR4 (human)): 52% | kinase still bound, per cent of control (PRKX (human)): 99% | kinase still bound, per cent of control (CSNK1G2 (human)): 100% | kinase still bound, per cent of control (SRPK3 (human)): 64%
